Numbers after ± are expanded uncertainties.
Settings: Crystal; visual observation

First: CCCCCCCCCCCCCC [tetradecane]
Second: CCCCCCCCCCCCCCCC [hexadecane]
The Normal melting temperature of the first is lower: 6.2 ± 0.4 °C for the first, 18.4 ± 0.4 °C for the second.

In the case of `CCCCCCCCCCCCCCCCCC` [octadecane], the Normal melting temperature is reported as 28.5 ± 0.4 °C.
